Source: article PMC6469224, “Tuning the properties of tris(hydroxypyridinone) ligands: efficient ^68Ga chelators for PET imaging” (Dalton Transactions (Cambridge, England : 2003), 2019)
Read-outs that look alike come from different tables or passages of the source. Values belong to the compound of their own block, whether it stands above or below them.

Assays:
mouse = experiment: In vivo ^68Ga scavenging: acetate-buffered ^68Ga injected, then chelator; PET/CT and urine HPLC; conditions: female BALB/c mouse, THPMe at 45 minutes
Description: The ability of THP^H to scavenge gallium in vivo was also investigated. […] This scavenging ability, shared with THP^Me (ESI, Fig. S8 ^†), reflects the rapid complexation kinetics and the extraordinary ability to transchelate gallium (which is known to bind rapidly and almost completely to transferrin when intravenously injected[44]) rapidly in the biological milieu.
All in vivo experiments were carried out in accordance with British Home Office regulations governing animal experimentation and complied with guidelines on responsibility in the use of animals in bioscience research of the U.K. Research Councils and Medical Research Charities, under U.K. Home Office project and personal licences. […] Respiration rate and bed temperature were monitored throughout. […] All reconstructed datasets were analysed using VivoQuant 1.21 software (inviCRO), which enables the co-registration of PET and CT images and the delineation of regions of interest (ROIs) for quantification of activity in specific organs. […] Urine was collected and analysed by reversed-phase HPLC (method 3).
An E&Z generator was eluted with 5 mL of pure HCl 0.1 M (Fluka analytical) in five 1 mL fractions and their activity measured by a Capintec radionuclide dose calibrator. […]
Quantitative radiolabelling was obtained for all examined concentrations. […]

[1] = Spectrophotometric titration, acid dissociation constants; type: physicochemical
Description: (§1) The THP^Me and THP^H acid dissociation and conditional formation constants for their Ga^3+ and Fe^3+ complexes were investigated by spectrophotometric measurements. pKa and pM values (defined as –log[M^3+] when [ligand]total = 10 μM, [metal]total = 1 μM and pH = 7.4) are reported in Table 2. A full list of the measured conditional formation constants is provided in the ESI (Tables S1–S3 ^†), together with speciation plots calculated for the pH range of the titration. The pKa values for THP chelators are better described as intrinsic protonation constants since they represent the average pKa values of the three hydroxypyridinone units, which could not be distinguished by UV spectrophotometric measurements.[45] The first intrinsic pKa is attributed to the carbonyl group of the HP unit, and the second to the adjacent hydroxyl group. For THP^H a third intrinsic protonation constant, pKa3, associated with deprotonation of the N^1–H group in the pyridinone ring, exists outside the pH range used. The value of pKa3 was estimated to be 13 from the spectral change of the [Fe(THP^H)] complex in the pH 10–12.5 range. The measured protonation constants for THP^H are lower than those measured for deferiprone, but slightly higher than those for THP^Me (that is, THP^Me is slightly more acidic than THP^H).
The automated titration system consists of a Metrohm 765 Dosimat autoburette, a Mettler Toledo MP230 pH meter with SENTEK pH electrode (P11), and an HP 8453 UV-visible spectrophotometer with a Hellem quartz flow cuvette, with circulation driven by a Gilson Mini-plus #3 pump (speed capability 20 mL min^–1). A potassium chloride electrolyte solution (0.1 M) was used to maintain the ionic strength. The temperature of the test solutions was maintained in a thermostatic jacketed titration vessel at 25 ± 0.1 °C, using a Fisherbrand Isotemp water bath. The pH electrodes were calibrated using the software GLEE[47] with data obtained by titrating a volumetric standard HCl (0.1 M) in KCl (0.1 M) with KOH (0.1 M) under an atmosphere of argon. Analytical grade reagent materials were used in the preparation of all solutions. The solution under investigation was stirred vigorously during the experiment. For pKa determinations, a cuvette path length of 10 mm was used, while for metal stability constants determinations, a cuvette path length of 50 mm was used (experimental concentration was ca. 40 μM for iron complexes and ca. 10 μM for gallium complexes). All instruments were interfaced to a computer and controlled by an in-house program.
The automated titration adopted the following strategy: the pH of a solution was increased in increments of 0.1 pH unit by the addition of potassium hydroxide solution (0.1 M) from the autoburette. The pH readings were judged stable if they varied by less than 0.01 pH unit after a pre-set incubation period. […] The cycle was repeated until the predefined end point pH value was achieved. Titration data were analysed with the HypSpec2014 program[48],[49] […] The fitting spectra range for iron complexes was 400–700 nm while that for gallium complexes was 250–350 nm. pH values higher than 11.3 (outside the pH range in which electrode measurements are considered accurate) were neglected and re-calculated from the added KOH quantity (using “no pH” mode within the HypSpec2014 program). […] Metal affinities of compounds in this study were determined in competition with the metal hydrolysis species in a solution at a high pH (titrated up to pH 12.5). […]

[2] = cited from earlier work
[3] = cited from earlier work; remark: listed apart in the source
[4] = Spectrophotometric determination of conditional formation constants, Ga^3+ complexes; type: binding
Description: as §1
(§2) The automated titration system consists of a Metrohm 765 Dosimat autoburette, a Mettler Toledo MP230 pH meter with SENTEK pH electrode (P11), and an HP 8453 UV-visible spectrophotometer with a Hellem quartz flow cuvette, with circulation driven by a Gilson Mini-plus #3 pump (speed capability 20 mL min^–1). A potassium chloride electrolyte solution (0.1 M) was used to maintain the ionic strength. The temperature of the test solutions was maintained in a thermostatic jacketed titration vessel at 25 ± 0.1 °C, using a Fisherbrand Isotemp water bath. […]
(§3) The automated titration adopted the following strategy: the pH of a solution was increased in increments of 0.1 pH unit by the addition of potassium hydroxide solution (0.1 M) from the autoburette. The pH readings were judged stable if they varied by less than 0.01 pH unit after a pre-set incubation period. […] Titration data were analysed with the HypSpec2014 program[48],[49] […] The fitting spectra range for iron complexes was 400–700 nm while that for gallium complexes was 250–350 nm. pH values higher than 11.3 (outside the pH range in which electrode measurements are considered accurate) were neglected and re-calculated from the added KOH quantity (using “no pH” mode within the HypSpec2014 program). […] Metal affinities of compounds in this study were determined in competition with the metal hydrolysis species in a solution at a high pH (titrated up to pH 12.5). […]

[5] = Spectrophotometric determination of conditional formation constants, Fe^3+ complexes; type: binding
Description: as §1, §2, §3

[6] = 0.1 M KCl electrolyte solution, intrinsic pKa for THP ligands (carbonyl group of HP unit), 25 °C, 0.1 M KCl, read-out: pKa1
[7] = M3+ + 2 L− ⇄ [ML2]+, repeated as control
[8] = M3+ + 3 L− ⇄ [ML3], repeated as control
[9] = M3+ + L− ⇄ [ML]2+, repeated as control
[10] = –log[M^3+] at [M]total = 1 μM, [L]total = 10 μM, pH = 7.4

In vivo ^68Ga binding and blood clearance after injection of the chelator (mouse): able to bind 68Ga in vivo
Compound: CC(=O)NC(CCC(=O)NCc1c(O)c(=O)cc(C)n1C)(CCC(=O)NCc1c(O)c(=O)cc(C)n1C)CCC(=O)NCc1c(O)c(=O)cc(C)n1C [THP^Me, tris(1,6-dimethyl-3-hydroxypyridin-4-one)]

pKa [1, 6]: 3.2 | pKa ([1]; 0.1 M KCl electrolyte solution, intrinsic pKa for THP ligands (hydroxyl group), 25 °C, 0.1 M KCl, read-out: pKa2): 9.4 | pKa ([1]; 0.1 M KCl electrolyte solution, pH 10, N^1–H deprotonation, estimated from spectral change of [Fe(THP^H)] in pH 10–12.5, read-out: pKa3): ~13
Compound: CC(=O)NC(CCC(=O)NCc1[nH]c(C)cc(=O)c1O)(CCC(=O)NCc1[nH]c(C)cc(=O)c1O)CCC(=O)NCc1[nH]c(C)cc(=O)c1O [THP^H]

Compound: O=C(O)CN(CCN(CC(=O)O)Cc1ccccc1O)Cc1ccccc1O [HBED, N,N-bis(2-hydroxybenzyl)ethylenediamine-N,N-diacetic acid]
log KGa [2]: 37.73 | log KFe [3]: 36.74

Compound: Cc1c(O)c(=O)ccn1C [Deferiprone]
Log β [GaL]2+ [4, 7]: 27.0 | Log β [GaL3] [4, 8]: 37.4 | Log β [GaL]2+ [4, 9]: 14.4 | pGa [4, 10]: 20.7 | Log β [FeL]2+ [5, 7]: 27.5 | Log β [FeL3] [5, 8]: 37.5 | Log β [FeL]2+ [5, 9]: 15.0 | pFe [5, 10]: 20.8 | pKa [1, 6]: 3.5 | pKa ([1]; intrinsic pKa for THP ligands (hydroxyl group), 25 °C, 0.1 M KCl, read-out: pKa2): 9.8
